As a reminder, the IC50 is the concentration that inhibits the measured activity by half. By AC50 is commonly meant the concentration at which the activity in the assay is half-maximal.

Where “and” joins values, the source holds several entries; their conditions need not be identical. Identical values can stand only once. Like-named read-outs stand apart in the source and are kept apart here.

Test [1] deals with AChE in SH-SY5Y spheroids (Homo sapiens, UniProt P22303). The experiment in a line: cell-based. The conditions noted are these: potency (IC50).
AChE in SH-SY5Y spheroids, sequence (P22303 32-614): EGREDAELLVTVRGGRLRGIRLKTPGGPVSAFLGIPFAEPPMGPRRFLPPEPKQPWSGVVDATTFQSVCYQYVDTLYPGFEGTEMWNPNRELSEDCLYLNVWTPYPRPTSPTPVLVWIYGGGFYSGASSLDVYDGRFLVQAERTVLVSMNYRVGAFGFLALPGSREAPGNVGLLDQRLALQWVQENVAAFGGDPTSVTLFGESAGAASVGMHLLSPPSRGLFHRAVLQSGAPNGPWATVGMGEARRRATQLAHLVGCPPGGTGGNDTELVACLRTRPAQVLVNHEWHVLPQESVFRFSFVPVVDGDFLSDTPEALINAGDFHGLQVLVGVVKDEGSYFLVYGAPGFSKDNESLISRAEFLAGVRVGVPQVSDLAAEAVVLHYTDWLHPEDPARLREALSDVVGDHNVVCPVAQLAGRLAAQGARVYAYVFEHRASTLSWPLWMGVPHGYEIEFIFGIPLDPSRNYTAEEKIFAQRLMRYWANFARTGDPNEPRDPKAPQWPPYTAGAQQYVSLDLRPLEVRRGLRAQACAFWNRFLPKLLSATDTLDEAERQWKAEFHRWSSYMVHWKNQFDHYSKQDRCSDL
Test [2] concerns the target T1, recombinant human AChE (Homo sapiens, UniProt P22303). In words: biochemical.
For test [3], the target named is T1, recombinant human AChE.
The target in a further test is AChE in SH-SY5Y cells (Homo sapiens, UniProt P22303). In words: cell-based.
AChE in SH-SY5Y cells, sequence (P22303 32-614): as above
Test [4] deals with T1, recombinant human AChE. In words: biochemical. To be noted: for AC50: AC50 (uM). It is filed as biochemical.
Test [5] concerns the target T1, recombinant human AChE. The experiment in a line: biochemical. This is another data set of the same source.
For test [6], the target named is T1, recombinant human AChE. The experiment in a line: biochemical. This is another data set of the same source.
Test [7] deals with AChE in neural stem cells (Homo sapiens, UniProt P22303). The experiment in a line: cell-based.
AChE in neural stem cells, sequence (P22303 32-614): as above
For test [8], the target named is AChE in neural stem cell spheroids (Homo sapiens, UniProt P22303). The experiment in a line: cell-based. The conditions noted are these: for IC50: potency (IC50).
AChE in neural stem cell spheroids, sequence (P22303 32-614): as above
The mark [9] stands for this setting: potency (IC50), Enzyme with microsomes.
The mark [10] stands for this setting: Neural stem cell spheroid (24 h).
Where [11] appears, read: Neural stem cell spheroid (48 h).
The mark [12] stands for this setting: potency (IC50), SH-SY5Y cells monolayer.
For IR or R in this document: key: Reversible (R); Irreversible (IR); ND, not detected in enzyme-based AChE inhibition assay from current study.

T1 sequence (P22303 32-614): as above

For `CCOP(=S)(OCC)SCSc1ccc(Cl)cc1` [Carbophenothion], the IC50 was 28.1 µM in [1] (SH-SY5Y spheroids (24 h)); 19.6 µM in [1] (SH-SY5Y spheroids (48 h)); 89.4 µM at recombinant human AChE [2] (IC50 (uM)); 89.4 µM at AChE in SH-SY5Y cells (IC50 (uM)); 3.74 µM on recombinant human AChE [6] (setting [9]); 2.96 µM in [7]. The results for the IC50 in [8] (setting [10]) and in test [8] (setting [11]) were 2.19 µM and 3.31 µM, respectively. Further, the “AChE inhibition (result in words)” value on recombinant human AChE [2] is “did not show effects”. For the same compound, the “CC-v2 (curve classes)” value on recombinant human AChE [2] is given as -2.2; at recombinant human AChE [3], 4. In addition, the Efficacy is -28.575 on recombinant human AChE [2] and -18.784 on recombinant human AChE [3]. For the same compound, on recombinant human AChE [2], the “potency (IC50), Enzyme” value was “Inactive”. In addition, at AChE in SH-SY5Y cells, the “potency (IC50), SH-SY5Y cells monolayer” value is recorded as “Inactive”. Further, the AC50 at recombinant human AChE [4] is 19.3 µM and 17.2 µM and 21.7 µM. For the same compound, the “potency (IC50), Enzyme-based assay with heat-inactivated microsomes” value on recombinant human AChE [5] is listed as “Inactive”.
Turning to `Cc1ccc2c(n1)Oc1ccc(C(C)C(=O)OCC(=O)N(C)C)cc1C2` (stereo not shown) [Mepranoprofen arbamel, reference compound], the IC50 is 7.46 ± 3.5 µM in test [1] (SH-SY5Y spheroids (24 h)); 18 ± 2.29 µM in test [1] (SH-SY5Y spheroids (48 h)); 24.5 µM and 15.5 µM on recombinant human AChE [2] (IC50 (uM)); 15.4 ± 1.77 µM on recombinant human AChE [2] (potency (IC50), Enzyme); 15.5 µM and 12.3 µM and 27.5 µM against AChE in SH-SY5Y cells (IC50 (uM)); 19.3 µM on AChE in SH-SY5Y cells (setting [12]). Besides, the half-maximal inhibitory concentration (IC50) at recombinant human AChE [5] was determined as 24.3 µM; at recombinant human AChE [6] (setting [9]), 37.3 ± 5.13 µM; in test [7] it was 12.7 ± 0.85 µM; in [8] (setting [10]), 12.5 ± 3.49 µM; in [8] (setting [11]), 11.3 µM. The “CC-v2 (curve classes)” value at recombinant human AChE [2] was -2.2 and -1.1; at recombinant human AChE [3], 4; on AChE in SH-SY5Y cells, -2.1 and -1.1. In addition, the Efficacy on recombinant human AChE [3] is on record as 0. Further, at recombinant human AChE [4], the AC50 was 12.2 µM and 13.7 µM and 19.3 µM (3×) and 7.69 µM and 17.2 µM and 9.68 µM.
`CCN(C(=O)c1cc(C)cc(OC[C@H](C)Nc2ccncc2)c1)C(C)C.Cc1ccc(S(=O)(=O)O)cc1` [GW473178E methyl benzene sulfonic acid]: the half-inhibitory concentration (IC50) is 9.63 µM in test [1] (SH-SY5Y spheroids (24 h)); 24 µM in test [1] (SH-SY5Y spheroids (48 h)); 22.2 µM on recombinant human AChE [2] (IC50 (uM)); 10.6 µM on recombinant human AChE [2] (potency (IC50), Enzyme); 12.5 µM and 11.1 µM against AChE in SH-SY5Y cells (IC50 (uM)); 23.3 µM against AChE in SH-SY5Y cells (setting [12]). Also, the IC50 at recombinant human AChE [5] turned out to be 19.7 ± 2.26 µM; on recombinant human AChE [6] (IC50 (uM)), 49.7 µM; at recombinant human AChE [6] (setting [9]), 18.9 µM; in test [7] it was 24.8 µM; in [8] (setting [11]), 31.2 µM. The “CC-v2 (curve classes)” value is reported as -2.1 at recombinant human AChE [2], -2.2 at recombinant human AChE [3] and -1.1 on AChE in SH-SY5Y cells. The Efficacy on recombinant human AChE [2] is reported as -70.195; at recombinant human AChE [3], -52.62. The “IR or R” value on recombinant human AChE [4] was “R”. Also, the AC50 at recombinant human AChE [4] was 11 µM (2×) and 19.6 µM and 9.82 µM (3×) and 8.76 µM and 12.4 µM. Besides, the “potency (IC50), Neural stem cell spheroid (24 h)” value in test [8] was “Inactive”.
Regarding `CCN1CCCC1CNC(=O)c1cc(S(=O)(=O)CC)c(N)cc1OC` (stereo not shown) [Amisulpride, reference compound], the IC50 is 11.1 µM in test [1] (SH-SY5Y spheroids (24 h)); 28.6 µM in test [1] (SH-SY5Y spheroids (48 h)); 15.5 µM on recombinant human AChE [2] (IC50 (uM)); 14.3 µM on recombinant human AChE [2] (potency (IC50), Enzyme); 21.9 µM and 34.7 µM and 38.9 µM on AChE in SH-SY5Y cells (IC50 (uM)); 30.7 µM against AChE in SH-SY5Y cells (setting [12]). Besides, the IC50 worked out at 24.3 µM at recombinant human AChE [5]; 38.9 µM on recombinant human AChE [6] (IC50 (uM)); 21.8 µM at recombinant human AChE [6] (setting [9]); 17.2 µM in [7]; 12.1 µM in test [8] (setting [11]). In addition, the “CC-v2 (curve classes)” value at recombinant human AChE [2] is -2.2; at recombinant human AChE [3], -2.4. Besides, the Efficacy is -62.971 at recombinant human AChE [2] and -30.734 on recombinant human AChE [3]. Further, the “IR or R” value at recombinant human AChE [4] is “R”. The AC50 at recombinant human AChE [4] is 17.2 µM (2×) and 6.85 µM and 19.3 µM (2×) and 3.43 µM and 15.3 µM and 21.7 µM. For the same compound, in [8], the “potency (IC50), Neural stem cell spheroid (24 h)” value was “Inactive”.

(Values after PMC8041433 (Environmental Health Perspectives, 2021).)
